A short description of data set [1]: Drug concentration in C57BL/6J mouse portal vein plasma at 10 mg/kg, po administered as cassette dose measured at 4 hrs by LC/MS/MS analysis. Type of data set: ADME, organism-based.
Data set [2] concerns Mus musculus. As to the kind of experiment: Antitumor activity in C57BL/6J mouse model of spontaneous GI-tract tumor Apc-min assessed as reduction in total ileum polyp number at 30 to 300 mg/kg, po administered as suspension for 10 weeks. The following applies: dose 30-300 mg/kg. Type of data set: functional, organism-based.
The target of data set [3] is T1, Prostaglandin G/H synthase 2 (Homo sapiens, UniProt P35354).
T1 sequence (P35354 whole entry): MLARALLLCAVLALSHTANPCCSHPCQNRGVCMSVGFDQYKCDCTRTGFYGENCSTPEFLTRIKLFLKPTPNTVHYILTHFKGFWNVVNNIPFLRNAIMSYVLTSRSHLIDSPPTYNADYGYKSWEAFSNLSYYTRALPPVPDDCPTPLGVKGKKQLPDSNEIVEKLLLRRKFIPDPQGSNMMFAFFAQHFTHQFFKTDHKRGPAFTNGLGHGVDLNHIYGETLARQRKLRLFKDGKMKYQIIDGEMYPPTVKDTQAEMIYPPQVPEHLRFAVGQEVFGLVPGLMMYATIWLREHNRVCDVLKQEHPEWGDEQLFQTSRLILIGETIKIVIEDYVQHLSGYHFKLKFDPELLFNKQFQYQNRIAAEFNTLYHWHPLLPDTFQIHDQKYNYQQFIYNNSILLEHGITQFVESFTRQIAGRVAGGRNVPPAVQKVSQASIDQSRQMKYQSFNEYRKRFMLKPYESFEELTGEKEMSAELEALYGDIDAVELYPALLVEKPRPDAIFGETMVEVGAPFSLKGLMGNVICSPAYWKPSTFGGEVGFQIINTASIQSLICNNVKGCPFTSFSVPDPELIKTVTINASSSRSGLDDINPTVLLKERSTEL
Description: Inhibition of COX2 (unknown origin) expressed in HEK293 TRex cells assessed as reduction in PGE2 production using arachidonic acid as substrate preincubated for 60 mins followed by substrate addition for 1 hr in presence of 10% FBS by RapidFire High-Throughput Mass Spectrometry. Type of data set: cell-based, HEK293-T-REx.

In data set [4] the target is Prostaglandin G/H synthase 1 (Homo sapiens, UniProt P23219). Description: Inhibition of COX1 (unknown origin) expressed in HEK293 TRex cells assessed as reduction in PGE2 production using arachidonic acid as substrate preincubated for 60 mins followed by substrate addition for 1 hr in presence of 10% FBS by RapidFire High-Throughput Mass Spectrometry. Type of data set: ADME, cell-based, HEK293-T-REx.
Sequence of Prostaglandin G/H synthase 1 (P23219 whole entry): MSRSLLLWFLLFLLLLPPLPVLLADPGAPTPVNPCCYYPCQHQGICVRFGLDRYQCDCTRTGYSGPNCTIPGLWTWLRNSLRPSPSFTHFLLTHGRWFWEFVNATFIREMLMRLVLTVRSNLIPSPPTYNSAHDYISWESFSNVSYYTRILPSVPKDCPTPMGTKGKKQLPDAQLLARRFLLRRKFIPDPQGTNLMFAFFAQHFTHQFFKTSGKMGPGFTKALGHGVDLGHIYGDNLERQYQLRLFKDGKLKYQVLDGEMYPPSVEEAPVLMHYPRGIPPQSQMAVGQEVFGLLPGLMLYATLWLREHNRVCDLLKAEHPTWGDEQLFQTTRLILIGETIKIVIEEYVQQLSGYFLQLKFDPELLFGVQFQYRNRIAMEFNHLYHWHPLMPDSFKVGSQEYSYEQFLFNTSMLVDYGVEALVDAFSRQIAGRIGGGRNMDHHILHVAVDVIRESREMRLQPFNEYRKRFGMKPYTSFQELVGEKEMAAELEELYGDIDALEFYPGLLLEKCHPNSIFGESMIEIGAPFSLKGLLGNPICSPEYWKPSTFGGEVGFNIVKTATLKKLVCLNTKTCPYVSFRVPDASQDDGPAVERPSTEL

A short description of data set [5]: Half life in human hepatocytes. Format: ADME, cell-based, Hepatocyte.
The subject of data set [6] is Mus musculus. As to the kind of experiment: Antitumor activity in C57BL/6J mouse model of spontaneous GI-tract tumor Apc-min assessed as reduction in total ileum polyp area at 300 mg/kg, po administered as suspension for 10 to 12 weeks. Type of data set: functional. Particulars: time 10-12 weeks, read-out: TGI.
Data set [7] concerns Mus musculus. As to the kind of experiment: Chemo-protective activity in po dosed C57BL/6J mouse model of spontaneous GI-tract tumor Apc-min assessed as reduction in 18F-FDG uptake in ileum incorporated into chow diet administered daily for 2 weeks and measured after 14 days by ex vivo PET imaging analysis. Type of data set: functional, organism-based.
For data set [8], the species on record is Homo sapiens. Description: Selectivity ratio of IC50 for COX1 in human whole blood assessed as reduction in calcium ionophore-stimulated TXB2 production to IC50 for COX2 in human whole blood assessed as reduction in LPS stimulated PGE2 production. Format: tissue-based.
Data set [9] concerns Mus musculus. As to the kind of experiment: Chemo-protective activity in C57BL/6J mouse model of spontaneous GI-tract tumor Apc-min assessed as 18F-FDG uptake in ileum at 300 mg/kg, po incorporated into chow diet administered daily for 2 weeks and measured after 14 days by ex vivo PET imaging analysis relative to control. Type of data set: functional.
Data set [10] can be described thus: Oral bioavailability in C57BL/6J mouse at 10 mg/kg measured up to 24 hrs by LC-MS analysis. Format: ADME, organism-based. The following applies: in vivo.

SMILES strings stand for the structures. Activity calls are given as the source filed them. No cut-off for these calls is given here.

A word on the IC50: it is the midpoint of a concentration-inhibition curve. One may read the half-life as how long it takes for the measured level to halve. Read a low half-life as rapid decline. Usually bioavailability stands for the share of a dose that reaches the circulation, judged against a reference dose that is usually intravenous. A higher bioavailability goes with much systemic uptake. In turn, `CCCOc1nc(OCC(C)(C)O)c(-c2ccc(S(C)(=O)=O)cc2)cc1CO` had a concentration at 4 h in data set [1] of 98.6 ng/mL. The outcome in [2] and in [7] was Active. Besides, the IC50 in data set [3] is 600 nM; in [4], over 50000 nM. In addition, the half-life in data set [5] was 3.1 min. Further, the inhibition in vivo at 300 mg/kg in data set [6] came out at 41.9%. For the same compound, in data set [8], the Ratio IC50 was 80. Besides, the Activity in data set [9] worked out at 35.6%. Further, the bioavailability in data set [10] was determined as 4.25%.

The values are drawn from ChEMBL document CHEMBL4808216, “Gut-Restricted Selective Cyclooxygenase-2 (COX-2) Inhibitors for Chemoprevention of Colorectal Cancer” (J Med Chem, 2021).
